Key:
[1] = tested on: dopamine autoreceptors (DA-autoreceptors); details: cited from earlier work; for selectivity as DA-autoreceptor agonist: compared with B-HT 920, literature
prolactin = details: Gudelsky 1983; cited from earlier work
DA-receptors = details: cited from earlier work; for action as DA agonist: Gudelsky et al.
[2] = tested on: endogenous dopamine synthesis in the brain; details: in vivo, Anden et al. 1983; cited from earlier work
prolactin level = assay: Prolactin level in blood of 6 healthy male subjects after 150 μg B-HT 920 (PROLRIA-100 radioimmunological method); format: in vivo, healthy male subjects (human); parameters: unit not given here
Experimental: The compound B-HT 920 is tested for its effect on PRL-reduction as follows. The tests are carried out with 6 healthy male subjects ranging in age from 24 to 34, each subject being given 150 μg of B-HT 920. Blood samples are taken from each subject at intervals of 0, 1, 2, 3 and 5 hours. The prolactin level in the sample is determined by the known PROLRIA-100 radioimmunological method of the National Insitute of the Radioelements, 6220 Fleurs, Belgium. The following table contains the results found for each subject at the 1 hour intervals shown.

[3] = Tolerability (general statement); details: in vivo
prolactin (PRL) = assay: Lowering of blood and serum levels of prolactin (general statement); details: in vivo

SMILES: CCCN1CCCC(c2cccc(O)c2)C1 (stereo not shown) [3-PPP]
- selectivity as DA-autoreceptor agonist [1]: not selectively active as DA-autoreceptor agonists
- prolactin inhibiting activity (prolactin): prolactin inhibiting activity
- action as DA agonist (DA-receptors): act preferentially as DA agonists

SMILES: C=CCN1CCc2nc(N)sc2CC1.Cl.Cl [B-HT 920, 6-allyl-2-amino-5,6,7,8-tetrahydro-4H-thiazolo-[4,5-d]azepine dihydrochloride]
- effect on dopamine autoreceptors ([1]; Anden et al. 1982): selective agonistic effect on dopamine autoreceptors
- effect on endogenous dopamine synthesis [2]: inhibits endogenous dopamine synthesis in the brain
- prolactin level (prolactin level; subject 1, 1 hour): 2.56
- prolactin level (prolactin level; subject 1, 2 hours): 0.52
- prolactin level (prolactin level; subject 1, 3 hours): 2.52
- prolactin level (prolactin level; subject 1, 5 hours): 3.26
- prolactin level (prolactin level; subject 1, time 0): 3.33
- prolactin level (prolactin level; subject 2, 1 hour): 2.85
- prolactin level (prolactin level; subject 2, 2 hours): 0.69
- prolactin level (prolactin level; subject 2, 3 hours): 0.52
- prolactin level (prolactin level; subject 2, 5 hours): 2.25
- prolactin level (prolactin level; subject 2, time 0): 3.86
- prolactin level (prolactin level; subject 3, 1 hour): 4.15
- prolactin level (prolactin level; subject 3, 2 hours): 4.92
- prolactin level (prolactin level; subject 3, 5 hours): 1.85
- prolactin level (prolactin level; subject 3, time 0): 4.22
- prolactin level (prolactin level; subject 4, 1 hour): 4.52
- prolactin level (prolactin level; subject 4, 2 hours): 7.89
- prolactin level (prolactin level; subject 4, 5 hours): 4.11
- prolactin level (prolactin level; subject 4, time 0): 5.04
- prolactin level (prolactin level; subject 5, 1 hour): 7.19
- prolactin level (prolactin level; subject 5, 2 hours): 1.37
- prolactin level (prolactin level; subject 5, 3 hours): 3.43
- prolactin level (prolactin level; subject 5, 5 hours): 2.89
- prolactin level (prolactin level; subject 5, time 0): 5.00
- prolactin level (prolactin level; subject 6, 1 hour): 7.59
- prolactin level (prolactin level; subject 6, 2 hours): 1.57
- prolactin level (prolactin level; subject 6, 5 hours): 4.33
- prolactin level (prolactin level; subject 6, time 0): 6.59

SMILES: CN(C)C1CCc2cc(O)c(O)cc2C1 (stereo not shown) [TL-99]
- selectivity as DA-autoreceptor agonist [1]: not selectively active as DA-autoreceptor agonists
- prolactin inhibiting activity (prolactin): prolactin inhibiting activity
- action as DA agonist (DA-receptors): act preferentially as DA agonists
- postsynaptic activity (DA-receptors; effect on the DA-receptors, Pastor et al. 1983): possibly has a postsynaptic activity

SMILES: CN1CCc2cccc3c2[C@H]1Cc1ccc(O)c(O)c1-3 [apomorphine]
- selectivity as DA-autoreceptor agonist [1]: not selectively active as DA-autoreceptor agonists
- action on DA-receptors and DA-autoreceptors (DA-receptors; well known): acts both on DA-receptors and also on DA-autoreceptors

SMILES: C=CCN1CCc2nc(N)sc2CC1 [compound A, 6-allyl-2-amino-5,6,7,8-tetrahydro-4H-thiazolo-[4,5-d]azepine]
- tolerability [3]: well tolerated
- effect on blood and serum levels of prolactin (PRL) (prolactin (PRL)): lower the blood and serum levels of prolactin (PRL)
